Several values for one entry are separate records, joined by “and”; a condition that tells them apart may be missing. Identical values can stand only once. After the bases stand the sugars from the 5' end (letter, count) and the backbone: PS all phosphorothioate, else s phosphorothioate and o phosphodiester by linkage. Methylation of C is not given here. e = 2'-O-(2-methoxyethyl) (MOE); k = constrained ethyl (cEt); d = 2'-deoxy (DNA)
Target: IRF4
Details: ASO

Sequence	target mRNA inhibition (MM.1R, 1 µM)	target mRNA inhibition (SK-MEL-28, 4 µM)	further results
GCATTTTATCATCCGA (sugars k3 d9 k3 e1, PS)	62%		target mRNA inhibition (MM.1R, 0.074 µM): 16%; target mRNA inhibition (MM.1R, 0.222 µM): 32%; target mRNA inhibition (MM.1R, 0.666 µM): 51%; target mRNA inhibition (MM.1R, 2 µM): 77%
AGAGTGAGATGCGGAG (sugars k3 d10 k3, PS)	65% and 63%		
TATCATATGCCCAATA (sugars k3 d10 k3, PS)		32%	
ACTGGATCTGAATTGT (sugars k3 d10 k3, PS)		57%	
TTGGTACGGGATTTCC (sugars k3 d10 k3, PS)	34%		
GTGTCTAAAGTCCCAT (sugars kdddddddddkekeke, PS)	5%		
TTTATGTTAGCCAATT (sugars k2 d9 e3 k2, PS)	3% and 21%		
GGAGCTAGTTTTATGT (sugars k3 d10 k3, PS)	-28%		
AAGCATTTTATCATCC (sugars kkkdddddddddkeke, PS)	21%		
CAAGTGTCTAAAGTCC (sugars k3 d10 k3, PS)	3%		
AGATGTATACATCACT (sugars k3 d10 k3, PS)		76% and 71%	
CTGAAACGGTCAGCAG (sugars k3 d10 k3, PS)	3%		
CGTAATACAAATAAAG (sugars k3 d10 k3, PS)		3%	
TGGCACCAAGGTCCAG (sugars k3 d10 k3, PS)		1%	
AGACAGAGAGTCCGAC (sugars k3 d10 k3, PS)		7%	
ATTATATACTGGTTGG (sugars k2 d9 e3 k2, PS)	37%		
TCCAAGCAATTATTCC (sugars k3 d10 k3, PS)		12%	
TTACTTCCCTGAGAAA (sugars k4 d8 k4, PS)		14%	
CCTGTGCAAAACCAGT (sugars k3 d10 k3, PS)	-10%		
AGTGACTTGCATCCAT (sugars kddddddddddkekek, PS)	2%		
TTTCAACTTGTGACCC (sugars k3 d10 k3, PS)	1%		
TGTAGTATGAGAAACG (sugars kkkddddddddkekek, PS)	23%		
TTAAAGAGTGGTACAC (sugars k3 d10 k3, PS)		6%	
TCATTTACTGTTACCG (sugars k3 d10 k3, PS)	56% and 40%		target mRNA inhibition (MM.1R, 0.0625 µM): 6%; target mRNA inhibition (MM.1R, 0.25 µM): 18%; target mRNA inhibition (MM.1R, 4 µM): 82%
AGACGAAAACAGCCGC (sugars k3 d10 k3, PS)		25%	
CTAGTCAGTGTCAATA (sugars k3 d10 k3, PS)		51%	

Sequence	target mRNA inhibition (MM.1R, 1 µM)	target mRNA inhibition (SK-MEL-28, 4 µM)	further results
CTTTTTTGGCTCCCTC (sugars k3 d10 k3, PS)		36%	
TCTATAGTGTTCCAGG (sugars kkkdddddddddkeke, PS)	68%		target mRNA inhibition (MM.1R, 0.074 µM): 22%; target mRNA inhibition (MM.1R, 0.222 µM): 34%; target mRNA inhibition (MM.1R, 0.666 µM): 56%; target mRNA inhibition (MM.1R, 2 µM): 81%
TGCTTGAGGTTTTCCT (sugars k3 d9 k3 e1, PS)	46%		
CAGTTTGTGAAGCATC (sugars k3 d10 k3, PS)		78%	
CCTAGATAACATGAGA (sugars k3 d10 k3, PS)		26%	
CACCATTCAGACAGAT (sugars k3 d10 k3, PS)		-67%	
TTGATGTGATAGCTGA (sugars k3 d10 k3, PS)	55%		
GGCCTGGAGGTGACGC (sugars k3 d10 k3, PS)		41%	
CGCCGAAGTCAACAGG (sugars k3 d10 k3, PS)		44%	
GCTGAATGCTCTCCAT (sugars k3 d10 k3, PS)		52%	
GTTGTAAATGAGTCGG (sugars kkdddddddddkdkdk, PS)	58%		target mRNA inhibition (MM.1R, 0.074 µM): 34%; target mRNA inhibition (MM.1R, 0.222 µM): 45%; target mRNA inhibition (MM.1R, 0.666 µM): 64%; target mRNA inhibition (MM.1R, 2 µM): 85%
TGAGATAGGAAGCACT (sugars k3 d10 k3, PS)		38%	
CAACTAGCAGGGCACG (sugars k3 d10 k3, PS)		38%	
GAGCCAACTTATAGCA (sugars k3 d10 k3, PS)	11% and 8%		
GATAAGAAGCACTGGC (sugars k3 d10 k3, PS)		63%	
ACACTTTTAGAGAGGA (sugars kkkdddddddddkeke, PS)	37%		
GACACTTTTAGAGAGG (sugars kkkddddddddkekek, PS)	-8%		
ACGGAAGTTTACACTG (sugars kdddddddddkekeke, PS)	2%		
CGCCAGTGACCACGAG (sugars k3 d10 k3, PS)		42%	
AGTCCTCAAATCTTCA (sugars k3 d10 k3, PS)		54%	
CTCTTACTCCGCTGAG (sugars k3 d10 k3, PS)		-5%	
CTGGAGTGAACCCTTC (sugars k3 d10 k3, PS)		56%	
AGGTAGTGGCCCCAGC (sugars k3 d10 k3, PS)		60%	
GACCATGTTACACTTT (sugars k3 d10 k3, PS)		50%	
AGCCCTTACCTCGCCC (sugars k3 d10 k3, PS)		25%	
CATCACTGCAGTTCAC (sugars k3 d10 k3, PS)		47%	

Sequence	target mRNA inhibition (MM.1R, 1 µM)	target mRNA inhibition (SK-MEL-28, 4 µM)	further results
TGATAGCTGAGCTGAT (sugars kkdddddddddkdkdk, PS)	-22%		
GCAAGTTTTCTCTGTC (sugars k3 d10 k3, PS)		56%	
TACTAATTCCATAGAG (sugars k3 d10 k3, PS)		26%	
TGTAGTATGAGAAACG (sugars kdddddddddkekeke, PS)	14%		
TGCGGCTCCGGCGACG (sugars k3 d10 k3, PS)	-20%		
AAGCAGTGATGTCAGG (sugars kdddddddddkekeke, PS)	34% and 35%		
GATGTGATAGCTGAGC (sugars k2 d9 e3 k2, PS)	52%		
GGCAACCATTTTCACA (sugars k3 d10 k3, PS)		-17%	
TCCTTTAAACAGTGCC (sugars k3 d10 k3, PS)		50%	
CTGTTAGCTACAAAGA (sugars k3 d10 k3, PS)		56%	
CGCGCAAGTCTACAGC (sugars k3 d10 k3, PS)	13%		
ACCGATGCTTCAAGAC (sugars k3 d10 k3, PS)	31% and 56%		
ACGCAGTGCACCTGTG (sugars k3 d10 k3, PS)		-7%	
CTACCTCAGTTTGTGA (sugars k3 d10 k3, PS)		41%	
GGCAAGTTCTGCTGTC (sugars k3 d10 k3, PS)		58%	
GCCGAAGCATTTTATC (sugars k3 d10 k3, PS)		29%	
TAGTAAGTTCTAGTCG (sugars k3 d10 k3, PS)	-13%		
CGGTAGAGTGAGATGC (sugars k3 d10 k3, PS)		54%	
TTTACTAACTGGCTTC (sugars k3 d10 k3, PS)		45%	
TGCCAGAGGGCAAGAT (sugars k3 d10 k3, PS)		2%	
GTTGGCTGGTCTTTGT (sugars kkdddddddddkdkdk, PS)	56%		
TTGAAGCAACACGGGA (sugars k3 d10 k3, PS)		61%	
TTGCTTTGCAGAGCAA (sugars k3 d10 k3, PS)		28%	
CTCCAGGGATGGAACA (sugars k3 d10 k3, PS)		19%	
GCAGTGATGTCAGGTT (sugars kkdddddddddekeke, PS)	80%		target mRNA inhibition (MM.1R, 0.074 µM): 22%; target mRNA inhibition (MM.1R, 0.222 µM): 49%; target mRNA inhibition (MM.1R, 0.666 µM): 73%; target mRNA inhibition (MM.1R, 2 µM): 92%
TCCTGAGACAAGTGCT (sugars k3 d10 k3, PS)		55%	

Sequence	target mRNA inhibition (MM.1R, 1 µM)	target mRNA inhibition (SK-MEL-28, 4 µM)	further results
AGTTGTAAATGAGTCG (sugars k3 d10 k3, PS)		85%	
ACTGAACCATGTTCCT (sugars k3 d10 k3, PS)		51%	
ACTATGGTAGGAGTGT (sugars k3 d10 k3, PS)		25%	
CGCCGGCACAGGCGCG (sugars k3 d10 k3, PS)	14%		
AGCTTGATAAAGGCTG (sugars kkdddddddddekeke, PS)	18%		
GATGTGATAGCTGAGC (sugars kkdddddddddkekek, PS)	31%		
TTATATACTGGTTGGT (sugars kkddddddddddkeke, PS)	47%		
TGTGTATTACTCTTAG (sugars kkdddddddddkekek, PS)			target mRNA inhibition (MM.1R, 0.0625 µM): 19%; target mRNA inhibition (MM.1R, 0.25 µM): 32%; target mRNA inhibition (MM.1R, 4 µM): 85%
TACACCTCTTCACTAC (sugars k3 d10 k3, PS)	-18%		
TCGCGCAAAGGGCAAG (sugars k3 d10 k3, PS)	-4%		
GACTTAGTCAGAATCT (sugars k3 d10 k3, PS)	10%		
AGGCACATCAATGTTT (sugars k3 d10 k3, PS)		51%	
CAGATGGCATGCGAAT (sugars k3 d10 k3, PS)		35%	
AGACAGTGCGCCCCAA (sugars k3 d10 k3, PS)	-17%		
AGTATGAGAAACGGCC (sugars kkkddddddddkekek, PS)	10%		
AGGGAATCCCTTATTA (sugars k3 d10 k3, PS)		6%	
AAAGCATAGAGTCACC (sugars k3 d10 k3, PS)		34%	
TCCACGCGCGGAGGAC (sugars k3 d10 k3, PS)	-43%		
CACATTTGAGAGCTAC (sugars k3 d10 k3, PS)		74%	
AGTATGAGAAACGGCC (sugars kkdddddddddkdkdk, PS)	6%		
ATGTGATAGCTGAGCT (sugars k3 d10 k3, PS)	26%		
GCAACTAGCAGGGCAC (sugars k3 d10 k3, PS)		53%	
CGGGTCTGAGATGTCC (sugars k3 d10 k3, PS)	-2%		

Source: the OligoGym collection
